For 45 molecules, IC (2-fold clotting time) results are on record in patent US3978045A, “N^2 -dansyl-L-arginine derivatives, and the pharmaceutically acceptable acid addition salts thereof” (priority 1973, dated 1976).

The assay concerns the target T1, thrombin (Bos taurus, UniProt P00735).
T1 construct: mature alpha-thrombin (light plus heavy chain) cut from prothrombin
The assay can be described thus: Fibrinogen coagulation time (thrombin-induced clotting of fibrinogen). In kind it is biochemical. Particulars: bovine fibrinogen, borate saline buffer pH 7.4, thrombin 0.1 ml of 5 units/ml, 25°C; control coagulation time 50-55 seconds; read-out: Concentration required to prolong the coagulation time by a factor of 2. On the procedure: The antithrombotic activities of the N^2 -dansyl-L-arginine derivatives of this invention were compared with those of a known antithrombotic agent, (N^2 -(p-tolylsulfonyl)-L-arginine methyl ester). by determining the fibrinogen coagulation time. The measurement of the fibrinogen coagulation time was conducted as follows:
Immediately after mixing, the reaction mixture was transferred from the ice bath to a bath thermostated at 25°C. Coagulation times were taken as the period between the time of transference to the 25°C bath and the time of the first appearance of fibrin threads.
The term "concentration required to prolong the coagulation time by a factor of two" is the concentration of an active ingredient required to prolong the normal coagulation time 50-55 seconds to 100-110 seconds.

Counter-ions that a name gives are not always drawn. Non-standard residues stand in square brackets, D forms with d. Residues, ends and D or L forms follow the SMILES beside them. ξ: configuration not given here. *: point of attachment. Dansyl = CN(C)c1cccc2c(S(=O)(=O)*)cccc12; Pyrrolidide = C1CCN(*)C1; ξP = O=C(O)C1CCCN1; Sar = CNCC(=O)O

For `CCOC(=O)[C@H](CCCNC(=N)N)NS(=O)(=O)c1cccc2c(N(C)C)cccc12` [Sample 2, N^2 -dansyl-L-arginine ethyl ester dihydrochloride], the IC (2-fold clotting time) came to 8 µM.
With `CN(C)c1cccc2c(S(=O)(=O)N[C@@H](CCCNC(=N)N)C(=O)N3CCCCCCCC3)cccc12` [Sample 66, N^2 -dansyl-N,N-octamethylene-L-argininamide] the figure was 2 µM; with `CC(C)C1CCN(C(=O)[C@H](CCCNC(=N)N)NS(=O)(=O)c2cccc3c(N(C)C)cccc23)CC1` [Sample 61, 4-(isopropyl)-1-(N^2-dansyl-L-arginyl)piperidine], 1 µM.
With `CC1CCCCN1C(=O)[C@H](CCCNC(=N)N)NS(=O)(=O)c1cccc2c(N(C)C)cccc12` (stereo partly drawn) [Sample 56, 2-methyl-1-(N^2-dansyl-L-arginyl)piperidine] the figure was 1.3 µM; with `C#CCCOC(=O)[C@H](CCCNC(=N)N)NS(=O)(=O)c1cccc2c(N(C)C)cccc12` [Sample 13, N^2-dansyl-L-arginine 3-butynyl ester], 4 µM.
With `CN(C)c1cccc2c(S(=O)(=O)N[C@@H](CCCNC(=N)N)C(=O)NCC(=O)N3CCCC3)cccc12` [Sample 43] (Dansyl-Arg-Gly-Pyrrolidide) the figure was 370 µM; with `CC1CCCN(C(=O)[C@H](CCCNC(=N)N)NS(=O)(=O)c2cccc3c(N(C)C)cccc23)C1` (stereo partly drawn) [Sample 57, 3-methyl-1-(N^2-dansyl-L-arginyl)piperidine], 6.5 µM.
Turning to `CCOCCNC(=O)[C@H](CCCNC(=N)N)NS(=O)(=O)c1cccc2c(N(C)C)cccc12` [Sample 30, N^2-dansyl-N-(2-ethoxyethyl)-L-argininamide], the IC (2-fold clotting time) turned out to be 5 µM.
With `CN(C)c1cccc2c(S(=O)(=O)N[C@@H](CCCNC(=N)N)C(=O)NC3CC3)cccc12` [Sample 36] the figure was 200 µM; with `CN(C)c1cccc2c(S(=O)(=O)N[C@@H](CCCNC(=N)N)C(=O)N3CCCCCCC3)cccc12` [Sample 65, N^2 -dansyl-N,N-heptamethylene-L-argininamide], 1 µM.
Turning to `CCNC(=O)[C@H](CCCNC(=N)N)NS(=O)(=O)c1cccc2c(N(C)C)cccc12` [Sample 20, N^2 -dansyl-N-ethyl-L-argininamide monohydrate], the IC (2-fold clotting time) is 100 µM.
With `CCOC(=O)CNC(=O)[C@H](CCCNC(=N)N)NS(=O)(=O)c1cccc2c(N(C)C)cccc12` [Sample 31, N^2-dansyl-N-(2-ethoxycarbonylmethyl)-L-argininamide diacetate] (Dansyl-Arg-Gly-OEt) the figure was 160 µM; with `CN(C)c1cccc2c(S(=O)(=O)N[C@@H](CCCNC(=N)N)C(=O)N3CCC(C(N)=O)CC3)cccc12` [Sample 63], 100 µM; with `CCCCNC(=O)[C@H](CCCNC(=N)N)NS(=O)(=O)c1cccc2c(N(C)C)cccc12` [Sample 22, N^2 -dansyl-N-(n-butyl)-L-argininamide monohydrate], 25 µM.
With `COC(=O)CCN(C)C(=O)[C@H](CCCNC(=N)N)NS(=O)(=O)c1cccc2c(N(C)C)cccc12` [Sample 50, N^2-dansyl-N-methyl-N-(2-methoxycarbonylethyl)-L-argininamide] the figure was 2.5 µM.
With `CCC1CCN(C(=O)[C@H](CCCNC(=N)N)NS(=O)(=O)c2cccc3c(N(C)C)cccc23)CC1` [Sample 59, 4-ethyl-1-(N^2-dansyl-L-arginyl) piperidine] the figure was 0.1 µM; with `CN(C)c1cccc2c(S(=O)(=O)N[C@@H](CCCNC(=N)N)C(=O)N3CCCCC3)cccc12` [Sample 55, 1-(N^2-dansyl-L-arginyl)piperidine diacetate], 0.9 µM.
In the case of `CCCNC(=O)[C@H](CCCNC(=N)N)NS(=O)(=O)c1cccc2c(N(C)C)cccc12` [Sample 21, N^2 -dansyl-N-(n-propyl)-L-argininamide monohydrate], the IC (2-fold clotting time) worked out at 15 µM.
With `CCOC(=O)CCNC(=O)[C@H](CCCNC(=N)N)NS(=O)(=O)c1cccc2c(N(C)C)cccc12` [Sample 33, N^2-dansyl-N-(2-ethoxycarbonylethyl)-L-argininamide diacetate] the figure was 5 µM.
With `COC(=O)CCNC(=O)[C@H](CCCNC(=N)N)NS(=O)(=O)c1cccc2c(N(C)C)cccc12` [Sample 32, N^2-dansyl-N-(2-methoxycarbonylethyl)-L-argininamide] the figure was 22 µM; with `CCOC(=O)CN(C)C(=O)[C@H](CCCNC(=N)N)NS(=O)(=O)c1cccc2c(N(C)C)cccc12` [Sample 49] (Dansyl-Arg-[Sar]-OEt), 59 µM; with `CCCCN(C)C(=O)[C@H](CCCNC(=N)N)NS(=O)(=O)c1cccc2c(N(C)C)cccc12` [Sample 47, N^2 -dansyl-N-(n-butyl)-N-methyl-L-argininamide diacetate], 2 µM.
With `CCCC1CCN(C(=O)[C@H](CCCNC(=N)N)NS(=O)(=O)c2cccc3c(N(C)C)cccc23)CC1` [Sample 60, 4-(n-propyl)-1-(N^2-dansyl-L-arginyl)piperidine] the figure was 1 µM; with `CN(C)c1cccc2c(S(=O)(=O)N[C@@H](CCCNC(=N)N)C(=O)NCCCc3ccccc3)cccc12` [Sample 41], 27 µM.
Take `CN1CCN(C(=O)[C@H](CCCNC(=N)N)NS(=O)(=O)c2cccc3c(N(C)C)cccc23)CC1` [Sample 71, 4-methyl-1-(N^2-dansyl-L-arginyl)piperazine]: the IC (2-fold clotting time) was 2 µM.
With `CN(C)c1cccc2c(S(=O)(=O)N[C@@H](CCCNC(=N)N)C(=O)OCCCCCl)cccc12` [Sample 18, N^2-dansyl-L-arginine 4-chlorobutyl ester] the figure was 7 µM.
Consider `CCC(COC(=O)[C@H](CCCNC(=N)N)NS(=O)(=O)c1cccc2c(N(C)C)cccc12)[N+](=O)[O-]` (stereo partly drawn) [Sample 19], for which the IC (2-fold clotting time) was 200 µM.
With `CCOC(=O)C1CCCN1C(=O)[C@H](CCCNC(=N)N)NS(=O)(=O)c1cccc2c(N(C)C)cccc12` (stereo partly drawn) [Sample 54] (Dansyl-Arg-[ξP]-OEt) the figure was 780 µM.
Take `CN(C)c1cccc2c(S(=O)(=O)N[C@@H](CCCNC(=N)N)C(=O)N3CCCc4ccccc43)cccc12` [Sample 72, N^2-dansyl-N-(1,2,3,4-tetrahydro-1-quinolyl)argininamide]: the IC (2-fold clotting time) stood at 6.5 µM.
With `CCCCN(CC)C(=O)[C@H](CCCNC(=N)N)NS(=O)(=O)c1cccc2c(N(C)C)cccc12` [Sample 48] the figure was 50 µM; with `CN(C)c1cccc2c(S(=O)(=O)N[C@@H](CCCNC(=N)N)C(=O)OCC3CCCO3)cccc12` (stereo partly drawn) [Sample 15], 20 µM; with `CCCCCNC(=O)[C@H](CCCNC(=N)N)NS(=O)(=O)c1cccc2c(N(C)C)cccc12` [Sample 23], 125 µM.
With `C=CCNC(=O)[C@H](CCCNC(=N)N)NS(=O)(=O)c1cccc2c(N(C)C)cccc12` [Sample 35, N^2 -dansyl-N-allyl-L-argininamide] the figure was 10 µM.
With `CC(C)NC(=O)[C@H](CCCNC(=N)N)NS(=O)(=O)c1cccc2c(N(C)C)cccc12` [Sample 26, N^2 -dansyl-N-isopropyl-L-argininamide] the figure was 1000 µM; with `CC1CN(C(=O)[C@H](CCCNC(=N)N)NS(=O)(=O)c2cccc3c(N(C)C)cccc23)CC(C)O1` (stereo partly drawn) [Sample 68], 20 µM; with `CN(C)c1cccc2c(S(=O)(=O)N[C@@H](CCCNC(=N)N)C(=O)N3CCCC3)cccc12` [Sample 53, 1-(N^2-dansyl-L-arginyl)pyrrolidine diacetate], 3.3 µM.
For `CC=CCOC(=O)[C@H](CCCNC(=N)N)NS(=O)(=O)c1cccc2c(N(C)C)cccc12` [Sample 12, N^2 -dansyl-L-arginine crotyl ester], the IC (2-fold clotting time) worked out at 2 µM.
With `CC(C)COC(=O)[C@H](CCCNC(=N)N)NS(=O)(=O)c1cccc2c(N(C)C)cccc12` [Sample 6, N^2 -dansyl-L-arginineisobutyl ester di(p-toluene sulfonate)] the figure was 110 µM; with `COCCOC(=O)[C@H](CCCNC(=N)N)NS(=O)(=O)c1cccc2c(N(C)C)cccc12` [Sample 16, N^2-dansyl-L-arginine 2-methoxyethyl ester], 5 µM; with `CCCCN(CCCC)C(=O)[C@H](CCCNC(=N)N)NS(=O)(=O)c1cccc2c(N(C)C)cccc12` [Sample 46], 39 µM.
With `COCCNC(=O)[C@H](CCCNC(=N)N)NS(=O)(=O)c1cccc2c(N(C)C)cccc12` [Sample 28, N^2-dansyl-N-(2-methoxyethyl)-L-argininamide dihydrate] the figure was 4 µM; with `CN(C)c1cccc2c(S(=O)(=O)N[C@@H](CCCNC(=N)N)C(=O)Nc3ccccc3)cccc12` [Sample 38], 100 µM; with `CN(C)c1cccc2c(S(=O)(=O)N[C@@H](CCCNC(=N)N)C(=O)NCCc3ccccc3)cccc12` [Sample 40, N^2 -dansyl-N-(β-phenylethyl)-L-argininamide dihydrate], 150 µM.
Regarding `CCN(CC)C(=O)[C@H](CCCNC(=N)N)NS(=O)(=O)c1cccc2c(N(C)C)cccc12` [Sample 45, N^2 -dansyl-N,N-diethyl-L-argininamide diacetate], the IC (2-fold clotting time) was 55 µM.
As to `CN(C)c1cccc2c(S(=O)(=O)N[C@@H](CCCNC(=N)N)C(=O)OC3CCCCC3)cccc12` [Sample 14], the IC (2-fold clotting time) came out at 60 µM.
